Seven molecules from ChEMBL document CHEMBL1137948, “The design and synthesis of sulfonamides as caspase-1 inhibitors” (Bioorg Med Chem Lett, 2004) can be followed below.

Usually Ki stands for a dissociation constant, usually derived from enzyme kinetics or from competition with a known ligand. Low values mean higher affinity, high ones lower affinity. A word on the IC50: it is the midpoint of a concentration-inhibition curve. A higher IC50 goes with weaker potency in that assay.

Biological target in one assay: not listed separately
Kind of assay: (§1) Inhibitory activity against caspase-1.
Turning to `O=C(O)CC(NC(=O)OCc1ccccc1)C(=O)CNS(=O)(=O)Cc1ccccc1` (centres undefined), the inhibitory constant (Ki) worked out at 18 µM.

The next assay has as its target T1, Caspase-1 (Homo sapiens, UniProt P29466).
T1 sequence (P29466 whole entry): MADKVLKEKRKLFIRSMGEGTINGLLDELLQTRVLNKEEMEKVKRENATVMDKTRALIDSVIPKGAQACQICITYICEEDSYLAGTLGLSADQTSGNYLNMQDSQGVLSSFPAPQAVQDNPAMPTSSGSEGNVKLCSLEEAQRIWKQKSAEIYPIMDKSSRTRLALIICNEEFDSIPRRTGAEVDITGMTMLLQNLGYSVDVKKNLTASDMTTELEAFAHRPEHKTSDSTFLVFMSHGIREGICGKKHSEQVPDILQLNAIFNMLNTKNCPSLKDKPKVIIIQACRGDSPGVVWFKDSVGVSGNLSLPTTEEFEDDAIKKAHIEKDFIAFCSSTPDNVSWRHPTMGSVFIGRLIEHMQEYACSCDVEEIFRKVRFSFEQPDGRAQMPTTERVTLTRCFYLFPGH
The description is as §1.
As for `O=C(O)CC(NC(=O)OCc1ccccc1)C(=O)CNS(=O)(=O)Cc1ccccc1` (centres undefined), inhibition was half-maximal at 168 µM (IC50).

Turning to `CC(=O)N[C@@H](Cc1ccc(O)cc1)C(=O)N[C@H](C(=O)N[C@@H](C)C(=O)NC(CC(=O)O)C(=O)CCCCCc1ccccc1)C(C)C` (some centres undefined), the IC50 turned out to be 0.071 µM and the affinity, expressed as Ki, was 0.014 µM.

`CC(C)[C@H](NC(=O)OCc1ccccc1)C(=O)N[C@@H](C)C(=O)NC(CC(=O)O)C(=O)CNS(=O)(=O)CCc1ccccc1` (some centres undefined) returned an IC50 of 0.072 µM and an inhibition constant Ki of 0.004 µM.

In turn, `C[C@H](NC(=O)[C@H](CCC(=O)O)NC(=O)OCc1ccccc1)C(=O)NC(CC(=O)O)C(=O)CNS(=O)(=O)CCc1ccccc1` (some centres undefined) displayed a concentration for half-maximal inhibition (IC50) of 0.0253 µM and a Ki of 0.0239 µM.

The molecule `O=C(O)CC(NC(=O)OCc1ccccc1)C(=O)CCCCCc1ccccc1` (centres undefined) had an IC50 of 1030 µM and a Ki of 119 µM.

The molecule `CC(C)[C@H](NC(=O)OCc1ccccc1)C(=O)N[C@@H](C)C(=O)NC(CC(=O)O)C(=O)CCCCCc1ccccc1` (some centres undefined) returned an IC50 of 0.976 µM and a Ki of 0.134 µM.

Regarding `CC(=O)N[C@@H](Cc1ccc(O)cc1)C(=O)N[C@@H](CCC(=O)O)C(=O)N[C@@H](C)C(=O)NC(CC(=O)O)C(=O)CNS(=O)(=O)CCc1ccccc1` (some centres undefined), the IC50 was found to be 0.0034 µM and the Ki came out at 0.004 µM.
